Measurements as given in PubChem BioAssay AID1259407 (Chemical Carcinogenesis Research Information System (CCRIS), 2018).
Active and inactive are the calls of the source. The rule behind the calls is not given here.

System: CCRIS mutagenicity, Ames/micronucleus/aberration tests
Experiment: CCRIS mutagenicity studies
Details: Test System: AMES SALMONELLA TYPHIMURIUM

Measured: mutagenic call

CCCCCCCCCCCC(=O)[O][Sn]([CH2]CCC)([CH2]CCC)[O]C(=O)CCCCCCCCCCC
inactive: Strain/Indicator: TA97, Metabolic Activation: HAMSTER, LIVER, S-9, AROCLOR 1254 (10%), Method: PREINCUBATION inactive; negative | Strain/Indicator: TA97, Metabolic Activation: HAMSTER, LIVER, S-9, AROCLOR 1254 (30%), Method: PREINCUBATION inactive; negative | Strain/Indicator: TA97, Metabolic Activation: NONE, Method: PREINCUBATION inactive; negative | Strain/Indicator: TA97, Metabolic Activation: RAT, LIVER, S-9, AROCLOR 1254 (10%), Method: PREINCUBATION inactive; negative | Strain/Indicator: TA97, Metabolic Activation: RAT, LIVER, S-9, AROCLOR 1254 (30%), Method: PREINCUBATION inactive; negative | Strain/Indicator: TA98, Metabolic Activation: HAMSTER, LIVER, S-9, AROCLOR 1254 (10%), Method: PREINCUBATION inactive; negative | Strain/Indicator: TA98, Metabolic Activation: HAMSTER, LIVER, S-9, AROCLOR 1254 (30%), Method: PREINCUBATION inactive; negative | Strain/Indicator: TA98, Metabolic Activation: NONE, Method: PREINCUBATION inactive; negative | Strain/Indicator: TA98, Metabolic Activation: RAT, LIVER, S-9, AROCLOR 1254 (10%), Method: PREINCUBATION inactive; negative | Strain/Indicator: TA98, Metabolic Activation: RAT, LIVER, S-9, AROCLOR 1254 (30%), Method: PREINCUBATION inactive; negative | Strain/Indicator: TA100, Metabolic Activation: HAMSTER, LIVER, S-9, AROCLOR 1254 (10%), Method: PREINCUBATION inactive; negative | Strain/Indicator: TA100, Metabolic Activation: HAMSTER, LIVER, S-9, AROCLOR 1254 (30%), Method: PREINCUBATION inactive; negative | Strain/Indicator: TA100, Metabolic Activation: NONE, Method: PREINCUBATION inactive; negative | Strain/Indicator: TA100, Metabolic Activation: RAT, LIVER, S-9, AROCLOR 1254 (10%), Method: PREINCUBATION inactive; negative | Strain/Indicator: TA100, Metabolic Activation: RAT, LIVER, S-9, AROCLOR 1254 (30%), Method: PREINCUBATION inactive; negative | Strain/Indicator: TA1535, Metabolic Activation: HAMSTER, LIVER, S-9, AROCLOR 1254 (10%), Method: PREINCUBATION inactive; negative | Strain/Indicator: TA1535, Metabolic Activation: HAMSTER, LIVER, S-9, AROCLOR 1254 (30%), Method: PREINCUBATION inactive; negative | Strain/Indicator: TA1535, Metabolic Activation: NONE, Method: PREINCUBATION inactive; negative | Strain/Indicator: TA1535, Metabolic Activation: RAT, LIVER, S-9, AROCLOR 1254 (10%), Method: PREINCUBATION inactive; negative | Strain/Indicator: TA1535, Metabolic Activation: RAT, LIVER, S-9, AROCLOR 1254 (30%), Method: PREINCUBATION inactive; negative

O=C1c2ccccc2-c2c1c1ccccc1c(=O)n2CCNCCO
inactive: Strain/Indicator: TA97, Metabolic Activation: NONE, Method: STANDARD PLATE inactive; negative | Strain/Indicator: TA97, Metabolic Activation: RAT, LIVER, S-9, PHENOBARBITAL AND ALPHA-NAPHTHOFLAVONE, Method: STANDARD PLATE inactive; negative | Strain/Indicator: TA98, Metabolic Activation: NONE, Method: STANDARD PLATE inactive; negative | Strain/Indicator: TA98, Metabolic Activation: RAT, LIVER, S-9, PHENOBARBITAL AND ALPHA-NAPHTHOFLAVONE, Method: STANDARD PLATE inactive; negative | Strain/Indicator: TA100, Metabolic Activation: NONE, Method: STANDARD PLATE inactive; negative | Strain/Indicator: TA100, Metabolic Activation: RAT, LIVER, S-9, PHENOBARBITAL AND ALPHA-NAPHTHOFLAVONE, Method: STANDARD PLATE inactive; negative | Strain/Indicator: TA1535, Metabolic Activation: NONE, Method: STANDARD PLATE inactive; negative | Strain/Indicator: TA1535, Metabolic Activation: RAT, LIVER, S-9, PHENOBARBITAL AND ALPHA-NAPHTHOFLAVONE, Method: STANDARD PLATE inactive; negative
